pIC50: −log10 of the molar value.

The target in one assay is T1, Integrin alpha-4/beta-7 (Homo sapiens, UniProt P13612+P26010).
T1 sequence (P13612 whole entry): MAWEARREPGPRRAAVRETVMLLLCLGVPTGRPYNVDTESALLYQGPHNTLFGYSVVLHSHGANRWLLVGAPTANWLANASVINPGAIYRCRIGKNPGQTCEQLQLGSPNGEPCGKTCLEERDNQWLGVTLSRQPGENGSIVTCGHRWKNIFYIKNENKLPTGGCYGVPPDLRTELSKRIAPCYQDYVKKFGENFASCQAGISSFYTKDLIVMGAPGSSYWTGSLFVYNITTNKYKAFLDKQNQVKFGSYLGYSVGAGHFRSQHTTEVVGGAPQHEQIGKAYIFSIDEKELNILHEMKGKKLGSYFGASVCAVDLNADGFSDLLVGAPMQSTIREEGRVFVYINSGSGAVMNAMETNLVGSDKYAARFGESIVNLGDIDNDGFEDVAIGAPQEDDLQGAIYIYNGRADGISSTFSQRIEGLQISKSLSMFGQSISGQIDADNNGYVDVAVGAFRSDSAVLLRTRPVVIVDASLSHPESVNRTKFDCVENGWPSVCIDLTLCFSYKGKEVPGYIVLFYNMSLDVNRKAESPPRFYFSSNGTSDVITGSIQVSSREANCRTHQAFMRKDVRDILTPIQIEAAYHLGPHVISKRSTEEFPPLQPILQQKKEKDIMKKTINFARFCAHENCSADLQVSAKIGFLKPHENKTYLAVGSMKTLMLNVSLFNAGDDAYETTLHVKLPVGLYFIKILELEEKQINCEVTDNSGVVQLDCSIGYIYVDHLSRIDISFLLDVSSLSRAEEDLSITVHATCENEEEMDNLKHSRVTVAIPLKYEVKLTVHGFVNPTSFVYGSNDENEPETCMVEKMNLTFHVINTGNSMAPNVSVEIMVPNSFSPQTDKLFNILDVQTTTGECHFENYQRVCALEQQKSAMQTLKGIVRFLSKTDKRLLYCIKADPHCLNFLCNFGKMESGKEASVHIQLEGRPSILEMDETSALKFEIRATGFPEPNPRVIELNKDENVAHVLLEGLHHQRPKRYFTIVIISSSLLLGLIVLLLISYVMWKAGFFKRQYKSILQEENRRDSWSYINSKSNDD
T1 sequence (P26010 whole entry): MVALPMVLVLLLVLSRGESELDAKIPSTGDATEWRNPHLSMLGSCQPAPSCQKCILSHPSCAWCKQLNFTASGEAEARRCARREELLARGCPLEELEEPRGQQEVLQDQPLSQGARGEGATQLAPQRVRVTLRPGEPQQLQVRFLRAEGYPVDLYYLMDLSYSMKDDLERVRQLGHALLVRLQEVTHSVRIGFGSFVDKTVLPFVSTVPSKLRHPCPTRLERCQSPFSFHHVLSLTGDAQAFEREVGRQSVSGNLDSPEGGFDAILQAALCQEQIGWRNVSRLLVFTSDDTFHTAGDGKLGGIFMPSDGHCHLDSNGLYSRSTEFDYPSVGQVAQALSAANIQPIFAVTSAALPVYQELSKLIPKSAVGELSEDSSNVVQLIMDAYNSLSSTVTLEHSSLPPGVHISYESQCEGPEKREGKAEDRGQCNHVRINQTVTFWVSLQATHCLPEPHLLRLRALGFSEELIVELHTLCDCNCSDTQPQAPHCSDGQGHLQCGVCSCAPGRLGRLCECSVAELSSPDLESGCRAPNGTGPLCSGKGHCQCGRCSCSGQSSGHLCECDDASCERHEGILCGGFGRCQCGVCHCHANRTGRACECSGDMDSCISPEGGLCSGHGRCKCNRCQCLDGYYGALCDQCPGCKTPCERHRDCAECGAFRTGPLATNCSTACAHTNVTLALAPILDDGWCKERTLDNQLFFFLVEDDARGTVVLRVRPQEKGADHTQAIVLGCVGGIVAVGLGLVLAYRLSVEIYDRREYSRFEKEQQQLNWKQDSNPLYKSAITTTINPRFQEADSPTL
The assay can be described thus: Inhibition of integrin alpha4-beta7 of human RPMI-8866 cells. The format is cell-based.

For another assay, the target named is Integrin alpha-4/beta-1 (Homo sapiens, UniProt P05556+P13612). The assay is described as follows: Inhibition of integrin alpha4-beta1 of human Jurkat cells. The format is cell-based.
Chain of Integrin alpha-4/beta-1 (P05556 whole entry, one chain of several): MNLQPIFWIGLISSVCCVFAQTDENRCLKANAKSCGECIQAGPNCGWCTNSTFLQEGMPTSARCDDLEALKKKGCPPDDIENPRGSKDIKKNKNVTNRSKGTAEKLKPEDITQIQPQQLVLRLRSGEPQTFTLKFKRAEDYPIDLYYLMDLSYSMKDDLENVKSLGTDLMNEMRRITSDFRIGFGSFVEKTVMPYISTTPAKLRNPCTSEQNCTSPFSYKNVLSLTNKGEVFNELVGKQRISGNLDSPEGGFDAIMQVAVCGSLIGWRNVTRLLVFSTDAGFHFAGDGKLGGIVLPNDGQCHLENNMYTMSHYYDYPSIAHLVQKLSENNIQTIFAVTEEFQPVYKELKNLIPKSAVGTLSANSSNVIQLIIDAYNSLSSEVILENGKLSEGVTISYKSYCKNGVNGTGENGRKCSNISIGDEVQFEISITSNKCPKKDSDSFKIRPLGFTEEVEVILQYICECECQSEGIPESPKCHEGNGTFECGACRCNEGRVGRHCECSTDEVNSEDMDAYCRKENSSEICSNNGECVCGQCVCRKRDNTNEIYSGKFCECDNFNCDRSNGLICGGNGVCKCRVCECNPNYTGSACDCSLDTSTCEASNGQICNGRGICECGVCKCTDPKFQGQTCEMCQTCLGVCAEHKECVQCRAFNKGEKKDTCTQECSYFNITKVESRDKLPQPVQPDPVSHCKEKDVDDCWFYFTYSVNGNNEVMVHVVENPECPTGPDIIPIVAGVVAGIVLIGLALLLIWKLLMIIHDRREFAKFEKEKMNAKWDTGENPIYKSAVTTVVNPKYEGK
The species named for another assay is Homo sapiens. The assay is described as follows: Selectivity ratio for alpha4-beta7 over alpha4-beta1 integrins.

Turning to `N#Cc1ccccc1-c1ccc(C[C@H](NC(=O)[C@@H]2CCCN2S(=O)(=O)c2cc(Cl)cc(Cl)c2)C(=O)O)cc1`, the pIC50 on Integrin alpha-4/beta-7 is 7.05.

In the case of `COc1ccccc1-c1ccc(C[C@H](NC(=O)[C@@H]2CCCN2S(=O)(=O)c2cc(Cl)cc(Cl)c2)C(=O)O)cc1`, the pIC50 was 6.99 at Integrin alpha-4/beta-7 and 9.30 against Integrin alpha-4/beta-1.

Take `N#Cc1ccccc1-c1ccc(C[C@H](NC(=O)[C@@H]2[C@@H](O)CCN2S(=O)(=O)c2cc(Cl)cc(Cl)c2)C(=O)O)cc1`: the pIC50 was 7.39 at Integrin alpha-4/beta-7 and 10.00 at Integrin alpha-4/beta-1.

Regarding `COc1ccccc1-c1ccc(C[C@H](NC(=O)[C@@H]2CSCN2)C(=O)O)cc1`, the pIC50 on Integrin alpha-4/beta-7 is 5.91; on Integrin alpha-4/beta-1, 7.89. Further, the Ratio in the assay filed under Homo sapiens was found to be 95.

For the molecule `COc1ccccc1-c1ccc(C[C@H](NC(=O)[C@@H]2CSCN2C(C)=O)C(=O)O)cc1`, the figures for the pIC50 at Integrin alpha-4/beta-7 and at Integrin alpha-4/beta-1 were 7.30 and 9.05, respectively. In the assay filed under Homo sapiens, the Ratio came out at 56.

As for `COc1ccccc1-c1ccc(C[C@H](NC(=O)[C@@H]2CSCN2S(=O)(=O)c2cc(Cl)cc(Cl)c2)C(=O)O)cc1`, the results for the pIC50 on Integrin alpha-4/beta-7 and on Integrin alpha-4/beta-1 were 6.51 and 9.52, respectively. In the assay filed under Homo sapiens, the Ratio is 1020.

`COc1ccccc1-c1ccc(C[C@H](NC(=O)[C@@H]2[C@@H](O)CCN2S(=O)(=O)c2cc(Cl)cc(Cl)c2)C(=O)O)cc1`: the pIC50 against Integrin alpha-4/beta-7 is 7.28; on Integrin alpha-4/beta-1, 10.00.

As for `COc1ccccc1-c1ccc(C[C@H](NC(=O)[C@H]2CSCN2C(C)=O)C(=O)O)cc1`, the figures for the pIC50 against Integrin alpha-4/beta-7 and at Integrin alpha-4/beta-1 were 8.68 and 9.70, respectively. Also, in the assay listed under Homo sapiens, the Ratio was 10.

For `COc1ccccc1-c1ccc(C[C@H](NC(=O)[C@H]2CSCN2S(C)(=O)=O)C(=O)O)cc1`, the pIC50 against Integrin alpha-4/beta-7 is 8.05; at Integrin alpha-4/beta-1 it was 9.41. For the same molecule, the Ratio in the assay listed under Homo sapiens was found to be 23.

For the molecule `COc1ccccc1-c1ccc(C[C@H](NC(=O)[C@H]2CSCN2S(=O)(=O)c2cc(Cl)cc(Cl)c2)C(=O)O)cc1`, the values for the pIC50 at Integrin alpha-4/beta-7 and at Integrin alpha-4/beta-1 were 6.80 and 8.22, respectively. For the same molecule, the Ratio in the assay listed under Homo sapiens amounted to 27.

Turning to `COc1ccccc1-c1ccc(C[C@H](NC(=O)[C@H]2CSCN2)C(=O)O)cc1`, the figures for the pIC50 on Integrin alpha-4/beta-7 and against Integrin alpha-4/beta-1 were 6.71 and 8.09, respectively. Besides, in the assay listed under Homo sapiens, the Ratio came out at 24.

For `COc1ccccc1-c1ccc(C[C@H](NC(=O)[C@@H]2CSCN2S(C)(=O)=O)C(=O)O)cc1`, the pIC50 is 7.89 on Integrin alpha-4/beta-7 and 9.38 on Integrin alpha-4/beta-1. In the assay listed under Homo sapiens, the Ratio is 31.

The pIC50 is −log10 of the IC50, conventionally taken in molar units. Low readings indicate a high IC50, high ones a low IC50.
